Results from US12187663B2, “Thyromimetics with a biphenylmethane scaffold and their use” (INTERNATIONAL SOCIETY FOR DRUG DEVELOPMENT S.R.L., priority 2019, dated 2025).

Legend:
TR-beta = target: T1, TR-beta (Homo sapiens, UniProt P10828); test: LanthaScreen TR-FRET nuclear receptor coregulator assay, TR-beta; type: biochemical; details: coregulator peptide recruitment
T1 construct: In this assay Nuclear Receptor-LBD is added to ligand test compounds; purchased Invitrogen Corporation, Life Technologies
T1 sequence (P10828 217-461 limits assumed): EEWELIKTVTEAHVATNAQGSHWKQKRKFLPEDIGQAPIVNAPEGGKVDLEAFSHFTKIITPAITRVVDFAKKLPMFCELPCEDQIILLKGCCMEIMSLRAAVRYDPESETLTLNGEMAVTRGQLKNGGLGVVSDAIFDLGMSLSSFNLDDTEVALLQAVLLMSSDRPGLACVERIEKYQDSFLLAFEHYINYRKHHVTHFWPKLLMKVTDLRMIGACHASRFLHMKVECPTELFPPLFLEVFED
Experimental: The compounds of Formula (I,II) were tested in the biological test named LANTHASCREEN TR-FRET NUCLEAR RECEPTOR COREGULATOR ASSAY (Invitrogen Corporation, Life Technologies).
In this assay Nuclear Receptor-LBD is added to ligand test compounds followed by addition of a mixture of the fluorescein-coregulator peptide and terbium anti-GST antibody.

AMPK = test: Western blot of phosphorylated AMPK in HepG2 cells; type: cell-based, Human; details: twenty-four hours of treatment, dose dependent
Experimental: Human hepatocellular carcinoma cells (HepG2), obtained from American Type Culture Collection (Manassas, Va., USA), were cultured in low-glucose (LG) Dulbecco's modified Eagle's medium (DMEM) ([…], Invitrogen, Carlsbad, Calif., USA) or high-glucose (HG) DMEM ([…]) supplemented with 10% fetal bovine serum (FBS) and […] penicillin/streptomycin in an atmosphere of 5% CO2 at 37° C. These cells were then treated with tested compounds at various concentrations for 24 h. After treatments, cells were lysed in a buffer containing 20 mM Tris-HCl (pH 7.5), 0.9% NaCl, 0.2% Triton X-100, and 1% of the protease inhibitor cocktail (Sigma-Aldrich, Milan, Italy) and then stored at −80° C. for further western blot analysis. All the analyses were conducted on cells between the third and the sixth passage.
Proteins (20-30 μg) were separated on CriterionTGX™ gel (4-20%) and transferred on Immuno-PVDF membrane (Biorad, Milan, Italy) for 1 h. Blots were incubated with the primary antibody at 4° C. overnight. All the polyclonal antibodies for the protein of interest were purchased from Santa Cruz Biotechnology, Inc., Dallas, TX, USA. Then, blots were washed 3 times for 10 minutes with 1×TBS, 0.1% Tween® 20 and incubated for 1 h with secondary antibody (peroxidase-coupled anti rabbit in 1×TBS, 0.1% Tween®20). […] Band densitometric analysis was performed using Image Lab Software (Biorad, Milan, Italy).
The liver is a major organ responsible for most functions of cellular metabolism and a mediator between dietary and endogenous sources of energy for extrahepatic tissues. In this context, AMPK constitutes an intrahepatic energy sensor regulating physiological energy dynamics by limiting anabolism and stimulating catabolism, thus increasing ATP availability. Once activated, AMPK phosphorylates its downstream substrates to reduce ATP-consuming anabolic pathways, including cholesterol, fatty acid, and triacylglycerol synthesis, and increases ATP-generating catabolic pathways, including fatty acid oxidation and lipolysis. […]

HepG2 cells = test: Glycerol release (lipolysis); type: cell-based, Human; details: 24 hours treatment, 1 and 10 μM
Experimental: Samples of the media collected from HepG2 cells used to test lipid accumulation by Oil Red O staining (as detailed above), were assayed for glycerol levels using the Glycerol Assay Kit (Cell Based-ab133130-Abcam).

Solubility in water = type: physicochemical
[1] = Serum levels of cholesterol, glucose, transaminases, amylase, lipase, bilirubin and triglycerides; type: in vivo, F-344 rats; details: rats, intragastric administration, 3 days

Row | SMILES | EC50 (TR-beta) [nM] | expression of p-AMPK (AMPK) | glycerol release / lipolysis (HepG2 cells) | solubility in water (Solubility in water) | serum TGs level [1]
1 | CC(=O)Nc1ccc(Cc2c(C)cc(OCC(=O)O)cc2C)cc1C(C)C [TG68, 2-(4-(4-acetamido-3-isopropylbenzyl)-3,5-dimethylphenoxy)acetic acid] | > 1000 | significantly (p<0.05) increased | induce lipolysis | very soluble in water | significantly reduced
2 | Cc1cc(OCC(=O)O)cc(C)c1Cc1ccc(N)c(C(C)C)c1 [IS25, 2-(4-(4-amino-3-isopropylbenzyl)-3,5-dimethylphenoxy)acetic acid] | 458 | significantly (p<0.05) increased | induce lipolysis | very soluble in water | significantly reduced
